Drawing on patent EP2599480A1 (priority 2011, dated 2013), this text covers IC50 and CC50 for 34 compounds.

Like-named read-outs stand apart in the source and are kept apart here. A value given as a limit tells only on which side of the number the result lay.

In data set [1] the target is NA of influenza virus A/PR/8/34 (Influenza A virus, UniProt P03468). Put plainly: biochemical. Also on record: species or system H1N1 influenza virus A/Puerto Rico/8/34.
Data set [2] is described as follows: in vitro. Conditions: dog; for CC50 at 72 h: mdck.
Data set [3] has as its system NA of influenza virus A/Jena/5528/09. The format is biochemical, clinical H1N1 isolate A/Jena/5528/09.
In data set [4] the test system is NA of influenza virus A/Jena/5555/09. The format is biochemical, clinical H1N1 isolate A/Jena/5555/09.

Chain of NA of influenza virus A/PR/8/34 (P03468 whole entry, looked up): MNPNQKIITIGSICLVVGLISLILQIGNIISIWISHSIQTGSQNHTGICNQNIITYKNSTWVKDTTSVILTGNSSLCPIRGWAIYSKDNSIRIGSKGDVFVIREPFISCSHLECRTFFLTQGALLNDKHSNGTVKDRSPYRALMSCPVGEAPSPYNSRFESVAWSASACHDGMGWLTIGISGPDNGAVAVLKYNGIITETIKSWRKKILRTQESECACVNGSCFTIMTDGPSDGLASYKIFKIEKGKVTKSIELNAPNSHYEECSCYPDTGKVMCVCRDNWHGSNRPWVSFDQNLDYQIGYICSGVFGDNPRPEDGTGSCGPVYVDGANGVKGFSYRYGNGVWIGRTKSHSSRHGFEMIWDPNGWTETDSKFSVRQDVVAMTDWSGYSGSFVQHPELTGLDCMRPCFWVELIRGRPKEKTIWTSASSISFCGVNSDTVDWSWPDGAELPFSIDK

In turn, `Cc1ccc(S(=O)(=O)Oc2cc(S(=O)(=O)O)cc3cc(S(=O)(=O)O)cc(N)c23)cc1` [NCI compound 16168] had an IC50 in data set [1] (IC50 for A/PR/8/34) of 5.91 µM. The same compound displayed a CC50 in data set [2] of over 100 µM. Consider `O=C(Nc1cc(S(=O)(=O)O)cc2cc(S(=O)(=O)O)cc(O)c12)c1ccccc1` [NCI compound 16169], for which, in data set [2], the CC50 was over 100 µM.

Compound `Nc1c(N=Nc2ccc(S(=O)(=O)Nc3ccccn3)cc2)cc(S(=O)(=O)O)c2ccccc12` [NCI compound 30456] showed an IC50 in data set [1] of under 0.12 µM. Regarding `Nc1c(N=Nc2ccc(S(=O)(=O)Nc3nccs3)cc2)cc(S(=O)(=O)O)c2ccccc12` [NCI compound 31348], the CC50 at 72 h in data set [2] is over 100 µM. As for `O=C(Nc1cc(S(=O)(=O)O)cc2cc(S(=O)(=O)O)ccc12)c1ccccc1` [NCI compound 37172], in data set [2], the CC50 is over 100 µM. With `Nc1ccc(C(=O)Nc2cc(S(=O)(=O)O)cc3cccc(O)c23)cc1` [NCI compound 37176], the CC50 in data set [2] is over 100 µM. Consider `Nc1ccc(C(=O)Nc2cc(S(=O)(=O)O)cc3cc(S(=O)(=O)O)ccc23)cc1` [NCI compound 37180], for which the CC50 in data set [2] was over 100 µM. On to `CN(C)c1ccc(C=Nc2cc(S(=O)(=O)O)cc3cc(S(=O)(=O)O)cc(O)c23)cc1` [NCI compound 37200], for which the IC50 turned out to be 1.18 µM in data set [3] and 0.94 µM in data set [4]. In addition, in data set [2], the CC50 at 72 h is over 100 µM. `CCOc1ccc(N=Nc2ccc(C=Nc3ccc4c(O)cc(S(=O)(=O)O)cc4c3)cc2)cc1` [NCI compound 37220] showed an IC50 in data set [1] (IC50 for A/PR/8/34) of 0.42 µM. In data set [2], this compound returned a CC50 at 72 h of over 100 µM. In data set [2], `Nc1ccc(C(=O)Nc2ccc(S(=O)(=O)O)c3cccc(O)c23)cc1` [NCI compound 37609] displayed a CC50 at 72 h of over 100 µM.

The compound `O=[N+]([O-])c1ccc(N=Nc2c(O)ccc3cc(S(=O)(=O)O)ccc23)cc1` [NCI compound 45538] had a CC50 at 72 h in data set [2] of over 100 µM. Consider `O=[N+]([O-])c1ccc(N=Nc2c(O)ccc3cc(S(=O)(=O)O)cc(S(=O)(=O)O)c23)cc1` [NCI compound 45539], for which the CC50 at 72 h in data set [2] is over 100 µM. In data set [2], `O=[N+]([O-])c1ccc(N=Nc2c(O)c(S(=O)(=O)O)cc3cc(S(=O)(=O)O)ccc23)cc1` [NCI compound 45540] came in with a CC50 at 72 h of over 100 µM. The same measure, in the same setting: to `O=[N+]([O-])c1cccc(N=Nc2c(O)c(S(=O)(=O)O)cc3cc(S(=O)(=O)O)ccc23)c1` [NCI compound 45541] belongs over 100 µM. `O=S(=O)(O)c1cc2cccc(S(=O)(=O)O)c2c(O)c1N=Nc1ccccc1` [NCI compound 45549] gave an IC50 in data set [1] (IC50 for A/PR/8/34) of 4.85 µM. In addition, the CC50 at 72 h in data set [2] is over 100 µM. As for `O=S(=O)(O)c1ccc2c(N=Nc3ccc(N=Nc4ccccc4)cc3)c(O)ccc2c1` [NCI compound 65545], the IC50 in data set [3] turned out to be 0.11 µM; in data set [4], 0.24 µM. In data set [2], this compound yielded a CC50 at 72 h of over 100 µM.

For `Cc1cc(S(=O)(=O)O)ccc1N=Nc1ccc(N=Nc2c(O)ccc3ccccc23)c(C)c1` [NCI compound 66221], the IC50 in data set [1] (IC50 for A/PR/8/34) was found to be 0.29 µM. For `CC(=O)Nc1cc(S(=O)(=O)O)cc2cc(S(=O)(=O)O)cc(O)c12` [NCI compound 74489], the CC50 at 72 h in data set [2] was over 100 µM.

Regarding `O=S(=O)(O)c1ccc2cc(N=Nc3cc(S(=O)(=O)O)c4cccnc4c3O)ccc2c1` [NCI compound 87877], the results for the IC50 in data set [3] and in data set [4] were 1.74 µM and 1.55 µM, respectively. The compound further registered a CC50 at 72 h in data set [2] of over 100 µM. `CCCCCC(=O)Nc1cc(S(=O)(=O)O)cc2cc(S(=O)(=O)O)cc(O)c12` [NCI compound 97290] had a CC50 at 72 h in data set [2] of over 100 µM. In data set [2], `Cc1nnc(NS(=O)(=O)c2ccc(N=Nc3c(O)c(C(=O)O)cc4ccccc34)cc2)s1` [NCI compound 134131] registered a CC50 at 72 h of over 100 µM. For `CC1NOC(NS(=O)(=O)c2ccc(N=Nc3c(O)c(C(=O)O)cc4ccccc34)cc2)C1C` (centres unmarked) [NCI compound 134132], the IC50 in data set [1] (read-out: IC50 for A/PR/8/34) amounted to 0.64 µM.

In turn, `Cc1cccc(NS(=O)(=O)c2ccc(N=Nc3c(O)c(C(=O)O)cc4ccccc34)cc2)n1` [NCI compound 134133] returned an IC50 in data set [1] of under 0.12 µM.

As to `O=C(O)c1cc2ccccc2c(N=Nc2ccc(S(=O)(=O)Nc3ccccn3)cc2)c1O` [NCI compound 134134], the IC50 in data set [1] (IC50 for A/PR/8/34) was found to be 0.45 µM. As to `O=C(O)c1cc2ccccc2c(N=Nc2ccc(S(=O)(=O)Nc3nccs3)cc2)c1O` [NCI compound 134135], the figures for the IC50 in data set [3] and in data set [4] were 0.24 µM and 0.31 µM, respectively. The compound also registered a CC50 at 72 h in data set [2] of over 100 µM. `O=C(O)c1cc2ccccc2c(N=Nc2ccc(S(=O)(=O)Nc3ncccn3)cc2)c1O` [NCI compound 134136] displayed a CC50 at 72 h in data set [2] of over 100 µM. With `O=C(O)c1cc2ccccc2c(N=Nc2ccc(S(=O)(=O)O)cc2)c1O` [NCI compound 134138], the IC50 stood at 3.06 µM in data set [3] and 2.9 µM in data set [4]. Moreover, in data set [2], the CC50 at 72 h was over 100 µM. In data set [2], `N=C(N)NS(=O)(=O)c1ccc(N=Nc2c(O)c(C(=O)O)cc3ccccc23)cc1` [NCI compound 134139] gave a CC50 at 72 h of over 100 µM. In data set [2], `Cc1cc(NS(=O)(=O)c2ccc(N=Nc3c(O)c(C(=O)O)cc4ccccc34)cc2)nc(C)n1` [NCI compound 134140] displayed a CC50 at 72 h of over 100 µM. Compound `Cc1ccc(N=Nc2c(O)c(C(=O)O)cc3ccccc23)cc1C` [NCI compound 134141] came in with a CC50 at 72 h in data set [2] of over 100 µM. Same read-out and setting: to `O=C(O)c1c(O)c(N=Nc2ccc(S(=O)(=O)Nc3ccccn3)cc2)cc2ccccc12` [NCI compound 134145] belongs over 100 µM; to `Nc1cc(S(=O)(=O)O)cc2cc(S(=O)(=O)O)c(N=Nc3cc(S(=O)(=O)O)cc4cc(S(=O)(=O)O)cc(O)c34)c(O)c12` [NCI compound 162530], over 100 µM; to `O=C(O)c1cc(C(=O)CCCC(=O)c2cc(C(=O)O)c(O)c3ccccc23)c2ccccc2c1O` [NCI compound 292216], over 100 µM. On to `Cc1ccc(Nc2nnc(CSc3ccc(Cl)cc3)s2)c(S(=O)(=O)O)c1` [NCI compound 369693], for which, in data set [2], the CC50 at 72 h is over 100 µM.
